Measurements: patent publication US4252807A, “Fused pyrimidine derivatives and antiatherosclerotic methods of treatment with them” (Chincin Gyogyszer es Vegyeszeti Termekek Gyara Rt., priority 1976, dated 1981)

Tests used:
normolyphaemic rats = assay: normolyphaemic rats, serum lipids (Table 2); assay type: in vivo, rat; design: Serum triglyceride: unit not given here; settings: for Serum cholesterine: Control 103; for Serum triglyceride: Control 185.1
[1] = test system: cholesterin-fed rabbit atherosclerosis model; assay: cholesterin-fed rabbit atherosclerosis model (Table 1); assay type: in vivo; design: Serum triglyceride: unit not given here; settings: for Serum triglyceride / Serum total cholesterin / Aorta total cholesterin / Aorta total lipid / Serum total lipid: rabbit, cholesterin-fed; for Serum triglyceride: Control-1 75, Control-2 103; for Serum total cholesterin: Control-1 326, Control-2 1504; for Aorta total cholesterin: Control-1 331, Control-2 921; for Aorta total lipid: Control-1 1928, Control-2 2575; for serum lipid, aorta lipid and cholesterin lipid level: in words, from the data of Table 1 (rabbit, 50 mg/kg)
[2] = dose 50 mg/kg, Control-1 (normal feed) 658, Control-2 (cholesterin) 2374

Row | Compound | Serum cholesterine (normolyphaemic rats; 50 mg/kg p.o.) | Serum triglyceride (normolyphaemic rats; 50 mg/kg p.o.) | Serum triglyceride ([1]; dose 50 mg/kg) | Serum total cholesterin ([1]; dose 50 mg/kg) | Aorta total cholesterin ([1]; dose 50 mg/kg) | Aorta total lipid ([1]; dose 50 mg/kg) | Serum total lipid [1, 2] | also measured
1 | CCOC(=O)c1cnc2n(c1=O)CCCC2CC(=O)O (centres unmarked) [G, 9-(carboxyl-methyl)-4-oxo-6,7,8,9-tetrahydro-4H-pyrido-(1,2a)pyrimidine-3-carboxylic acid ethylester] | 88.0 | 127.5 | – | – | – | – | – | –
2 | CCOC(=O)c1cnc2n(c1=O)C(C)CCC2=Cc1cccn1C (centres unmarked) [A, 6-methyl-9-(N-methyl-2-pyrrolyl)-methylene-4-oxo-6,7,8,9-tetrahydro-4H-pyrido(1,2a) pyrimidine-3-carboxylic acid ethylester] | – | – | 121 | 1419 | 958 | 2496 | 2309 | –
3 | COC(=O)C=C1CCC(C)n2c1ncc(C(=O)OC)c2=O (centres unmarked) [H, 9-(methoxycarbonyl-methylene)-6-methyl-4-oxo-6,7,8,9-tetrahydro-4H-pyrido(1,2a)pyrimidine-3-carboxylic acid methylester] | 90.2 | 107.9 | – | – | – | – | – | –
4 | CCOC(=O)c1cnc2n(c1=O)C(C)CCC2CC(=O)O (centres unmarked) [D, 6-methyl-3-ethoxycarbonyl-4-oxo-6,7,8,9-tetrahydro-4H-pyrido(1,2a)pyrimidine-9-yl-acetic acid] | – | – | 97 | 972 | 186 | 1355 | 1638 | serum lipid, aorta lipid and cholesterin lipid level [1]: significant decrease
5 | CCOC(=O)C1=CNC2C(CC(=O)O)CCCN2C1=O (centres unmarked) [F, 9-(carboxyl-methyl)-4-oxo-1,6,7,8,9,9a-hexahydro-4H-pyrido(1,2a)pyrimidine-3-carboxylic acid ethylester] | 88.0 | 155.5 | – | – | – | – | – | –
6 | CCOC(=O)C(C)(C)Oc1ccc(Cl)cc1 [Chlofibrate, reference compound] | – | – | – | – | – | – | – | Serum cholesterine (normolyphaemic rats; 250 mg/kg p.o.): 63.9; Serum triglyceride (normolyphaemic rats; 250 mg/kg p.o.): 144.1; Serum triglyceride ([1]; dose 250 mg/kg): 115; Serum total cholesterin ([1]; dose 250 mg/kg): 1137; Aorta total cholesterin ([1]; dose 250 mg/kg): 787; Serum total lipid ([1]; dose 250 mg/kg, Control-1 658, Control-2 2374): 1938; Aorta total lipid ([1]; dose 250 mg/kg): 2227; weight of the liver ([1]; test animals): increase the weight of the liver
7 | CCOC(=O)C=C1CCC(C)n2c1ncc(C(=O)OCC)c2=O (centres unmarked) [C, 6-methyl-9-(ethoxycarbonyl-methylene)-4-oxo-6,7,8,9-tetrahydro-4H-pyrido(1,2a)-purimidine-3-carboxylic acid ethylester] | – | – | 119 | 1176 | 353 | 1878 | 1903 | serum lipid, aorta lipid and cholesterin lipid level [1]: significant decrease
8 | 6-methyl-9-chloro-phenyl)-methylene-4-oxo-6,7,8,9-tetrahydro-4H-pyrido(1,2a)pyrimidine-3-carboxylic acid ethylester | – | – | 190 | 1531 | 365 | 2461 | 2547 | –
9 | CCOC(=O)C=C1CCCn2c1ncc(C(=O)OCC)c2=O [E, 9-(ethoxycarbonyl-methylene)-4-oxo-6,7,8,9-tetrahydro-4H-pyrido(1,2a)pyrimidine-3-carboxylic acid ethylester] | 86.5 | 127.9 | – | – | – | – | – | –
